Patent publication US20070190523A1 (priority 2002, published 2007)
Read-outs that look alike come from different tables or passages of the source.

How the values were obtained:
[1] = target: recombinant HIV-1 protease (Human immunodeficiency virus type 1 group M subtype B, UniProt P04585); test: biochemical; assay type: biochemical
[2] = system: wild-type HIV-1 strain IIIB; test: microbe, parasite or virus in culture; assay type: cell-based; conditions: read-out: EC50
[3] = system: mutant HIV-1 with I84V/L90M mutations; assay type: cell-based
[4] = system: 48V54V82S; test: microbe, parasite or virus in culture; design: species or system HIV; conditions: Human immunodeficiency virus 1, read-out: Cell-based assay (MT-4) EC50/nM 48V54V82S
[5] = target: T1, 84V90M (Human immunodeficiency virus type 1 group M subtype B, UniProt P04585, I572V/L578M); test: biochemical; assay type: biochemical, HIV
[6] = system: 46I50V; test: microbe, parasite or virus in culture; assay type: cell-based, HIV
[7] = system: 48V82A90M; test: microbe, parasite or virus in culture; design: species or system HIV; conditions: Human immunodeficiency virus 1, read-out: Cell-based assay (MT-4) EC50/nM 48V82A90M
[8] = system: 48V54V82A; test: microbe, parasite or virus in culture; assay type: cell-based, HIV
[9] = system: 30N82I88D; test: microbe, parasite or virus in culture; assay type: cell-based, HIV
[10] = target: T2, WT (Human immunodeficiency virus type 1 group M subtype B, UniProt P04585); test: cell-based; design: species or system HIV
[11] = target: T2, WT; test: biochemical; design: species or system HIV
[12] = target: T1, 84V90M; test: cell-based; design: species or system HIV
[13] = target: T1, 84V90M; test: Cell-based assay (MT-4) EC50, 84V90M; design: species or system HIV-1
[14] = system: MT-2 cells
[15] = system: recombinant HIV-1 strains with resistance mutations in the protease gene; test: Cross-Resistance Profile Assay, whole panel; assay type: cell-based
[16] = system: WT; design: species or system HIV-1; conditions: read-out: Cell-based assay (MT-4) EC50/nM WT
[17] = system: recombinant HIV-1 10R/46I/82T/84V; test: Cross-Resistance Profile Assay; assay type: cell-based
[18] = system: recombinant HIV-1 48V/54V/71V/82S; test: Cross-Resistance Profile Assay; assay type: cell-based
[19] = system: recombinant HIV-1 10F/46I/71V/82T/90M; test: Cross-Resistance Profile Assay; assay type: cell-based
[20] = system: recombinant HIV-1 46I/47V/50V; test: Cross-Resistance Profile Assay; assay type: cell-based
[21] = system: recombinant HIV-1 46I/84A; test: Cross-Resistance Profile Assay; assay type: cell-based
[22] = system: recombinant HIV-1 10I/48V/71V/82A/90M; test: Cross-Resistance Profile Assay; assay type: cell-based
[23] = system: recombinant HIV-1 10I/84V/71V/73S/90M; test: Cross-Resistance Profile Assay; assay type: cell-based
[24] = target: T1, 84V90M; assay type: biochemical, HIV-1; conditions: 84V90M enzyme; read-out: Enzymatic assay 84V90M IC50/nM
[25] = system: recombinant HIV-1 10I/48V/54V/82A; test: Cross-Resistance Profile Assay; assay type: cell-based
[26] = system: recombinant HIV-1 54V/71V/82S; test: Cross-Resistance Profile Assay; assay type: cell-based
[27] = system: recombinant HIV-1 30N/50S/82I/88D; test: Cross-Resistance Profile Assay; assay type: cell-based
[28] = Human immunodeficiency virus 1, read-out: Cell-based assay (MT-4) EC50/nM 30N82I88D
[29] = MT-4, 84V90M, read-out: Cell-based assay (MT-4) EC50/nM 84V90M
[30] = MT-4, WT, read-out: Cell-based assay (MT-4) EC50/nM WT
[31] = Enzymatic assay, 84V90M, read-out: 84V90M IC50/nM

## CCOC(=O)C(C)OP(=O)(Cc1ccc(N(C)CC(NC(=O)OC2COC3OCCC23)C(O)CN(CC(C)C)S(=O)(=O)c2ccc(OC)cc2)cc1)Oc1ccccc1 (stereo not shown)
[1]; read-out: Ki
  Ki: 0.01 to 0.1 nM
[2]
  EC50: 500 to 5000 nM
[3]; I84V/L90M mutant
  I84V/L90M fold change: +++ (>30)

## Cc1cccc(C)c1OCC(=O)N[C@@H](Cc1ccc(OCP(=O)(Oc2ccccc2)Oc2ccccc2)cc1)[C@H](O)CN(CC(C)C)S(=O)(=O)c1ccc(N)cc1
[1]; read-out: Ki
  Ki: 0.01 to 0.1 nM

## CCOP(=O)(CCCNC(=O)c1cccc(CN2C(=O)N(Cc3ccc(O)cc3)C(Cc3ccccc3)C(O)C(O)C2Cc2ccccc2)c1)OCC (stereo not shown)
[4]
  EC50: 75 nM
[5]
  IC50: 12 nM
[1]; Ki (nM)
  Ki: 0.009 nM
[6]; Human immunodeficiency virus 1, read-out: Cell-based assay (MT-4) EC50/nM 46I50V
  EC50: 85 nM
[7]
  EC50: 74 nM
[8]; Human immunodeficiency virus 1, read-out: Cell-based assay (MT-4) EC50/nM 48V54V82A
  EC50: 80 nM
[9]; [28]
  EC50: 74 nM
[10]
  EC50: 65 nM
[11]
  IC50: 1.1 nM
[12]
  EC50: 311 nM

## O=C1N(Cc2ccccc2)C(Cc2ccccc2)C(O)C(O)C(Cc2ccc(OCP(=O)(OCc3ccccc3)OCc3ccccc3)cc2)N1Cc1ccccc1 (stereo not shown)
[13]
  EC50: > 6000 nM

## CCOP(=O)(COc1ccc(CC2C(O)C(O)C(Cc3ccccc3)N(Cc3ccccc3)C(=O)N2Cc2ccccc2)cc1)OCC (stereo not shown)
[10]
  EC50: 107 nM
[12]; [29]
  EC50: 2460 nM

## CCCCOC(=O)C(C)NP(=O)(COc1ccc(CC(NC(=O)OC2COC3OCCC23)C(O)CN(CC(C)C)S(=O)(=O)c2ccc(OC)cc2)cc1)NC(C)C(=O)OCCCC (stereo not shown) [GS-16503]
[14]
  increase of conversion to acid metabolites at 1 μM vs. 10 μM: 3 fold
[15]; resistance = 5-fold and higher change in EC50 relative to wild type, 11 mutant viruses
  Total No. of Resistant Viruses: 0

## O=C1N(Cc2ccccc2)C(Cc2ccccc2)C(O)C(O)C(Cc2ccc(O)cc2)N1Cc1ccccc1 (stereo not shown) [H / Ph / OH]
[16]
  EC50: 1260 nM

## Cc1cccc(C)c1OCC(=O)N[C@@H](Cc1ccccc1)[C@@H](O)C[C@H](Cc1ccccc1)NC(=O)[C@H](C(C)C)N1CCCNC1=O [Lopinavir]
[17]
  Fold Change in EC50 Relative to WT HIV-1: 11 fold
[18]
  Fold Change in EC50 Relative to WT HIV-1: 60 fold
[19]
  Fold Change in EC50 Relative to WT HIV-1: 7.5 fold
[15]; {}
  Total No. of Resistant Viruses: 6
[20]
  Fold Change in EC50 Relative to WT HIV-1: 19 fold
[21]
  Fold Change in EC50 Relative to WT HIV-1: 9 fold
[22]
  Fold Change in EC50 Relative to WT HIV-1: 4.5 fold
[23]
  Fold Change in EC50 Relative to WT HIV-1: 11 fold

## CCOP(=O)(COCCCN1C(=O)N(Cc2ccc3[nH]nc(N)c3c2)C(Cc2ccccc2)C(O)C(O)C1Cc1ccccc1)OCC (stereo not shown) [OCH2PO3Et2]
[6]; MT-4, 46I50V, read-out: Cell-based assay (MT-4) EC50/nM 46I50V
  EC50: 138 nM
[8]; MT-4, 48V54V82A, read-out: Cell-based assay (MT-4) EC50/nM 48V54V82A
  EC50: 175 nM
[9]; MT-4, 30N82I88D, read-out: Cell-based assay (MT-4) EC50/nM 30N82I88D
  EC50: 145 nM
[10]; [30]
  EC50: 356 nM

## Nc1n[nH]c2ccc(CN3C(=O)N(CCCOCP(=O)(O)O)C(Cc4ccccc4)C(O)C(O)C3Cc3ccccc3)cc12 (stereo not shown) [OCH2PO3H2]
[10]; [30]
  EC50: 1070 nM
[12]; [29]
  EC50: > 600 nM

## CCOP(=O)(CCNC(=O)Oc1ccc(CC2C(O)C(O)C(Cc3ccc(OC)cc3)N(Cc3cccc(N)c3)C(=O)N2Cc2cccc(N)c2)cc1)OCC (stereo not shown) [OCH3 / Ph-mNH2 / OCONH(CH2)2PO3Et2]
[24]
  IC50: 116 nM
[13]
  EC50: 2260 nM

## CCOP(=O)(CCNC(=O)Oc1ccc(CC2C(O)C(O)C(Cc3ccc(OC)cc3)N(Cc3ccc(O)cc3)C(=O)N2Cc2ccc(O)cc2)cc1)OCC (stereo not shown) [OCH3 / Ph-pOH / OCONH(CH2)2PO3Et2]
[13]
  EC50: 495 nM

## CCOP(=O)(COc1ccc(CC2C(O)C(O)C(Cc3ccc(O)cc3)N(Cc3ccc(O)cc3)C(=O)N2Cc2ccc(O)cc2)cc1)OCC (stereo not shown) [OH, Ph-pOH, OCH2PO3Et2]
[10]
  EC50: 285 nM
[12]; [29]
  EC50: 1910 nM

## CCC[C@@]1(CCc2ccccc2)CC(O)=C([C@H](CC)c2cccc(NS(=O)(=O)c3ccc(C(F)(F)F)cn3)c2)C(=O)O1 [Tipranavir]
[17]
  Fold Change in EC50 Relative to WT HIV-1: 5 fold
[25]
  Fold Change in EC50 Relative to WT HIV-1: 0.4 fold
[18]
  Fold Change in EC50 Relative to WT HIV-1: 2 fold
[19]
  Fold Change in EC50 Relative to WT HIV-1: 3 fold
[26]
  Fold Change in EC50 Relative to WT HIV-1: 3.5 fold
[27]
  Fold Change in EC50 Relative to WT HIV-1: 0.5 fold
[15]; {}
  Total No. of Resistant Viruses: 1
[20]
  Fold Change in EC50 Relative to WT HIV-1: 0.5 fold
[21]
  Fold Change in EC50 Relative to WT HIV-1: 1 fold
[22]
  Fold Change in EC50 Relative to WT HIV-1: 0.3 fold
[3]; fold difference in EC50 vs wild type, class symbols
  I84V/L90M fold change: + (>3 to ≦10)

## Nc1n[nH]c2ccc(CN3C(=O)N(Cc4cccc(OCc5ccccc5)c4)C(Cc4ccccc4)C(O)C(O)C3Cc3ccccc3)cc12 (stereo not shown) [m-OBn]
[5]; [31]
  IC50: 27 nM
[10]
  EC50: 218 nM
[12]; [29]
  EC50: 2420 nM

## Nc1n[nH]c2ccc(CN3C(=O)N(Cc4ccc(OCc5ccccc5)cc4)C(Cc4ccccc4)C(O)C(O)C3Cc3ccccc3)cc12 (stereo not shown) [p-OBn]
[5]; [31]
  IC50: 781 nM
[9]; [28]
  EC50: 1550 nM
[10]
  EC50: 2120 nM
[12]
  EC50: 5310 nM

## Nc1n[nH]c2ccc(CN3C(=O)N(Cc4ccc(OCP(=O)(O)O)cc4)C(Cc4ccccc4)C(O)C(O)C3Cc3ccccc3)cc12 (stereo not shown) [p-OCH2PO3H2]
[5]; [31]
  IC50: 1660 nM
[10]
  EC50: > 12000 nM

## O=C1N(Cc2ccccc2)[C@H](Cc2ccccc2)[C@H](O)[C@@H](O)[C@@H](Cc2ccccc2)N1Cc1ccc2[nH]ncc2c1 [reference compound]
[10]
  EC50: 193 nM
[12]; [29]
  EC50: 2310 nM
